From patent EP4043466B1, “PRC2 INHIBITORS” (Mirati Therapeutics, Inc., priority 2018, dated 2019)

Tests used:
[1] = tested on: Karpas 422 cells; assay: Karpas 422 cell viability, CTG (Cell Titre Glo) assay; format: cell-based, human; conditions: Homo sapiens; Inhibition of proliferation of Karpas 422 cells (EZH2 Y641N); viability measured Day 4, Day 7 or Day 11, time point of the tabulated values not stated
Method in brief: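 CellTiter-Glo viability IC50s taken at Day 4, Day 7 and Day 11 of continuous compound exposure (3-fold series, 10µM top, 1.5nM lowest) in RPMI/20% FBS at 37 °C. Y641N-mutant EZH2 lymphoma line seeded at 1000 cells per well; medium and compound replaced on Day 7 for Day 11 read.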

[2] = tested on: PRC2-mediated histone H3 methylation; assay: Tri-Methyl Histone H3 (Lys 27) Sandwich ELISA in Pfeiffer cells: inhibition of PRC2-mediated histone H3 methylation; format: cell-based, human; conditions: Homo sapiens; Inhibition of EZH2-mediated histone H3 trimethylation; Pfeiffer cells (EZH2 A677G), 96 hours incubation
Method in brief: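 Pfeiffer DLBCL cells (EZH2 A677G mutant) treated with 3-fold serial dilutions, 1µM to 0.15 nM final, for 96 hours at 37°C. Acid (0.4M HCl) histone extracts, neutralized, assayed by H3K27me3 sandwich ELISA with HRP/TMB read at 450 nm.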

[3] = biological target: purified human, His-tagged PRC2 complex (Homo sapiens, UniProt O75530+Q15910); assay: Hot Spot HMT assay: inhibition of PRC2 enzymatic activity (transfer of tritiated methyl from SAM to core histone, filter binding); format: biochemical; conditions: Inhibition of PRC2-mediated enzymatic activity; 10 nM PRC2 complex, 0.05 mg/ml core histone H3, 1 uM 3H-SAM, 1 hr at 30°C
Chain of purified human, His-tagged PRC2 complex (Q15910 whole entry): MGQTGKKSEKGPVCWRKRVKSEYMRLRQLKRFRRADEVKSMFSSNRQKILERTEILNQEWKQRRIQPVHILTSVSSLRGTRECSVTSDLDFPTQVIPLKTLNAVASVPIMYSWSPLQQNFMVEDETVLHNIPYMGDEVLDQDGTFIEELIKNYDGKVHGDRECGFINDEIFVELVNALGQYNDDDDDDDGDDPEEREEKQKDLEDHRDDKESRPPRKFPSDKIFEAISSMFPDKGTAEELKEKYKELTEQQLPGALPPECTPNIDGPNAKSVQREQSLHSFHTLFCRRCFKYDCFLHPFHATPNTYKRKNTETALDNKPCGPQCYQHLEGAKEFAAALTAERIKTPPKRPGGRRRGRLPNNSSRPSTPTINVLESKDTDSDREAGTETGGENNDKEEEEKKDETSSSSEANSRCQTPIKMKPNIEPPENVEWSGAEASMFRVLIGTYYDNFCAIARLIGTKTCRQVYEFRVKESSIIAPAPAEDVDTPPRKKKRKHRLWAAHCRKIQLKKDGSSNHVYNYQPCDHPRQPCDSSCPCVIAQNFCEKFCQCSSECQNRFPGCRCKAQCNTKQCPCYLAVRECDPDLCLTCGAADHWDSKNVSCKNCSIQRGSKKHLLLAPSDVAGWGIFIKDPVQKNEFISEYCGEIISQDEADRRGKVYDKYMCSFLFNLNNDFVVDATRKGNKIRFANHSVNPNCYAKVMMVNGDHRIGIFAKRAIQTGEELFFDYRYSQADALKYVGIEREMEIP
Chain of purified human, His-tagged PRC2 complex (O75530 whole entry): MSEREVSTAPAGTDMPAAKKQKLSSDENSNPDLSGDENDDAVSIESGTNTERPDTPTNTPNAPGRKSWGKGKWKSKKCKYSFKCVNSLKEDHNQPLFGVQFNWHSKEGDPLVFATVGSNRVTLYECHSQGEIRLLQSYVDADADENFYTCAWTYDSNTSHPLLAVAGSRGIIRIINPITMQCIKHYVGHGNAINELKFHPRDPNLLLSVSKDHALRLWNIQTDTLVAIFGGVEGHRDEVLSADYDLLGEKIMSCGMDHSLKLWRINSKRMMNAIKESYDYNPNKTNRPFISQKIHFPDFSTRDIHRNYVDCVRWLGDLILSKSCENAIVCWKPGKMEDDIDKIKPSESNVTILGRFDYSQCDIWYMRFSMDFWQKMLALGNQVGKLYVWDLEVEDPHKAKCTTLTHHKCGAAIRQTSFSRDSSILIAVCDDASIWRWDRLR
Chain of purified human, His-tagged PRC2 complex (Q15022 whole entry partner): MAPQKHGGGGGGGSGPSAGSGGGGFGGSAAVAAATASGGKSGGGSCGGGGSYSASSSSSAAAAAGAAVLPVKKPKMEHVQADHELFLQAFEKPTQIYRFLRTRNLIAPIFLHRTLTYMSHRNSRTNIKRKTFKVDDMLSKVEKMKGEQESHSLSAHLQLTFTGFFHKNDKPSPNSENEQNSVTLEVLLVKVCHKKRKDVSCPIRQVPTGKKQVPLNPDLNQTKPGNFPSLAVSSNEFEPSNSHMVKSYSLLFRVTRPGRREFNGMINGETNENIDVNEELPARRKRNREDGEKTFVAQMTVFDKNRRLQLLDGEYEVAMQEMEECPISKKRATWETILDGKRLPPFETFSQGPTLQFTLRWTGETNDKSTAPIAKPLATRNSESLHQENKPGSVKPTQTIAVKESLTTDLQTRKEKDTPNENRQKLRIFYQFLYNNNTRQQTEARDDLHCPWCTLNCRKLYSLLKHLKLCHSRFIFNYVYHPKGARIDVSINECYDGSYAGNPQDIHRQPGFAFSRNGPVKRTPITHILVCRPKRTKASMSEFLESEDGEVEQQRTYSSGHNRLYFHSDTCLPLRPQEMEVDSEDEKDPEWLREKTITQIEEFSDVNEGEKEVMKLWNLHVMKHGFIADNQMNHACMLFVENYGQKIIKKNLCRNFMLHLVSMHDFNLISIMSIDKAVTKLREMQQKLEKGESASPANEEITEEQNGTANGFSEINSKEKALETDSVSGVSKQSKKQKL
Chain of purified human, His-tagged PRC2 complex (Q6ZN18 whole entry partner): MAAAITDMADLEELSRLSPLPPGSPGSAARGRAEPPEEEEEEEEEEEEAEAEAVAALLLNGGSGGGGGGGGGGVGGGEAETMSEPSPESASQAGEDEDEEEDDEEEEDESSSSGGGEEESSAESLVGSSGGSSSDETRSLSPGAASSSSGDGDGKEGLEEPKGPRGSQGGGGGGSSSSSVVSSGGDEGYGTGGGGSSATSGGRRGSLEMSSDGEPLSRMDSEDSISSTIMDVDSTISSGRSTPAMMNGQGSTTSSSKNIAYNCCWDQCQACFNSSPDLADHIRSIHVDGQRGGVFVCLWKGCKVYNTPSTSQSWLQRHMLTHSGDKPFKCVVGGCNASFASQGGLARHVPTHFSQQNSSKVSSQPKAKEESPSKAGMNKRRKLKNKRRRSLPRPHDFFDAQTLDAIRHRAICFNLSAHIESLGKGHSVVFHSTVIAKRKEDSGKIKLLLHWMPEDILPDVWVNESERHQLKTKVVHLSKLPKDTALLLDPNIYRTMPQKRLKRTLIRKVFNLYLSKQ
Chain of purified human, His-tagged PRC2 complex (Q09028 whole entry partner): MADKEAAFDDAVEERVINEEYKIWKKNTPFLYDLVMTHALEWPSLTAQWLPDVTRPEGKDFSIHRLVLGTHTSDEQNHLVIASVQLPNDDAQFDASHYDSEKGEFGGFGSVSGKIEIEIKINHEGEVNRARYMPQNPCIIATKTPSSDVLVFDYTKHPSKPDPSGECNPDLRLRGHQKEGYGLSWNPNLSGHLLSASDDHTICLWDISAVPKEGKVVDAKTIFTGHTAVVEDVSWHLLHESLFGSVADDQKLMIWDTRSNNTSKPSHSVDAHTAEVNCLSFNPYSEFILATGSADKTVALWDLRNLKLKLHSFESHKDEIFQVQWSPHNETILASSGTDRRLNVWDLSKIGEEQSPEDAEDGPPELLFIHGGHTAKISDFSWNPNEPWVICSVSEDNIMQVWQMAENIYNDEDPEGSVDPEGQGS
Method in brief: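 Serial compound dilutions starting at 1.0 µM were pre-incubated 20 min at 30°C with 10 nM complex (His-EZH2, Flag-EED, His-SUZ12, His-AEBP2, His-RbAp48) and 0.05 mg/ml core H3. Reaction ran 1 hr at 30°C after adding 1 uM [3H]-SAM; scintillation counting followed filtration.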

| SMILES | IC50 [1] | IC50 [2] | IC50 [3] |
| --- | --- | --- | --- |
| Cc1ccc(-c2cnc(NCc3c(F)ccc4c3CCO4)n3cc(C#N)nc23)c(C)n1 [Example 67, 8-(2,6-dimethylpyridin-3-yl)-5-(((5-fluoro-2,3-dihydrobenzofuran-4-yl)methyl)amino)imidazo[1,2-c]pyrimidine-2-carbonitrile] | ≤ 250 nM | ≤ 100 nM | < 100 nM |
| CN1CCN(C(=O)c2cc(-c3cnc(NCc4c(F)ccc5c4CCO5)n4cc(C#N)nc34)n(C)n2)CC1 [Example 229, 5-(((5-fluoro-2,3-dihydrobenzofuran-4-yl)methyl)amino)-8-(1-methyl-3-(4-methylpiperazine-1-carbonyl)-1H-pyrazol-5-yl)imidazo[1,2-c]pyrimidine-2-carbonitrile] | ≤ 250 nM | ≤ 100 nM | < 100 nM |
| N#Cc1cn2c(NCc3c(F)ccc4c3CCO4)ncc(-c3ccc(C(=O)O)nc3)c2n1 [Example 215, 5-(2-cyano-5-(((5-fluoro-2,3-dihydrobenzofuran-4-yl)methyl)amino)imidazo[1,2-c]pyrimidin-8-yl)picolinic acid] | > 500 nM | > 500 nM | < 100 nM |
| N#Cc1cn2c(NCc3c(F)ccc4c3CCO4)ncc(-c3ccc(CN4CCCC4=O)cc3)c2n1 [Example 49, 5-(((5-fluoro-2,3-dihydrobenzofuran-4-yl)methyl)amino)-8-(4-((2-oxopyrrolidin-1-yl)methyl)phenyl)imidazo[1,2-c]pyrimidine-2-carbonitrile] | ≤ 250 nM | 100 to 500 nM | < 100 nM |
| CCOP(=O)(OCC)c1ccc(-c2cnc(NCc3c(F)ccc4c3CCO4)n3cc(C#N)nc23)cc1 [Example 164, diethyl (4-(2-cyano-5-(((5-fluoro-2,3-dihydrobenzofuran-4-yl)methyl)amino)imidazo[1,2-c]pyrimidin-8-yl)phenyl)phosphonate] | ≤ 250 nM | ≤ 100 nM | < 100 nM |
| N#Cc1cn2c(NCc3c(F)ccc4c3CCO4)ncc(-c3ccc(CN4CCOCC4)cc3)c2n1 [Example 75, 5-(((5-fluoro-2,3-dihydrobenzofuran-4-yl)methyl)amino)-8-(4-(morpholinomethyl)phenyl)imidazo[1,2-c]pyrimidine-2-carbonitrile] | ≤ 250 nM | 100 to 500 nM | < 100 nM |
